Test results taken from patent US9494576B2, “Methods for detecting contaminants in solutions containing glucose polymers” (ROQUETTE FRERES, priority 2011, dated 2016).
Like-named read-outs stand apart in the source and are kept apart here.

Tests used:
THP-1 cells [1] = assay: Production of RANTES by differentiated (MDP-sensitized) THP-1 cells, ELISA; format: cell-based; conditions: for synergistic effect on the production of RANTES: sensitizer added to PGN/LPS: MDP 10 μg/ml, f-MLP 1, 10, 100 nM, LPS 25 pg/ml; for Detection threshold / EC50: RANTES; for Detection threshold / EC50 / Sensitivity: without MDP; for Sensitivity: per g of polymer at 25 mg/ml
Method: (§1) The THP-1 cells (88081201, ECACC) are cultured routinely in the laboratory.
(§2) For the pro-inflammatory activation experiments, the THP-1 cells are differentiated for 3 days in the presence of phorbol ester (PMA). In particular, the cells are placed in culture in 200 μl of complete medium in the presence of 20 nM of PMA for 72 h (final cell density: 0.75×10^6 cells/ml).
(§3) The differentiated THP-1 cells (0.75×10^6 cells/ml) are placed in culture in 200 μl of complete medium, and then incubated in the presence of the various test samples.
(§4) Each analysis is carried out in triplicate.
(§5) The cell supernatants are collected in order to assay the secreted cytokines after 8 h of stimulation for TNF-α, and 20 h for RANTES.
(§6) The ELISA assays are carried out according to the indications given by the supplier.
The following experimental conditions are selected: • final concentration of differentiated THP-1 cells: 0.75×10^6 cells/ml, […], • final glucose polymer concentration: 25 mg/ml, • response: ELISA assay of the production of RANTES after 20 h of stimulation.

THP-1 cells [2] = format: cell-based
Method: as §1, §2, §3, §4, §5, §6

NOD2 = NOD2 (Homo sapiens, UniProt Q9HC29); assay: SEAP production by HEK-BLUE hNOD2 line (HEK-NOD2); format: cell-based
NOD2, sequence (Q9HC29 whole entry): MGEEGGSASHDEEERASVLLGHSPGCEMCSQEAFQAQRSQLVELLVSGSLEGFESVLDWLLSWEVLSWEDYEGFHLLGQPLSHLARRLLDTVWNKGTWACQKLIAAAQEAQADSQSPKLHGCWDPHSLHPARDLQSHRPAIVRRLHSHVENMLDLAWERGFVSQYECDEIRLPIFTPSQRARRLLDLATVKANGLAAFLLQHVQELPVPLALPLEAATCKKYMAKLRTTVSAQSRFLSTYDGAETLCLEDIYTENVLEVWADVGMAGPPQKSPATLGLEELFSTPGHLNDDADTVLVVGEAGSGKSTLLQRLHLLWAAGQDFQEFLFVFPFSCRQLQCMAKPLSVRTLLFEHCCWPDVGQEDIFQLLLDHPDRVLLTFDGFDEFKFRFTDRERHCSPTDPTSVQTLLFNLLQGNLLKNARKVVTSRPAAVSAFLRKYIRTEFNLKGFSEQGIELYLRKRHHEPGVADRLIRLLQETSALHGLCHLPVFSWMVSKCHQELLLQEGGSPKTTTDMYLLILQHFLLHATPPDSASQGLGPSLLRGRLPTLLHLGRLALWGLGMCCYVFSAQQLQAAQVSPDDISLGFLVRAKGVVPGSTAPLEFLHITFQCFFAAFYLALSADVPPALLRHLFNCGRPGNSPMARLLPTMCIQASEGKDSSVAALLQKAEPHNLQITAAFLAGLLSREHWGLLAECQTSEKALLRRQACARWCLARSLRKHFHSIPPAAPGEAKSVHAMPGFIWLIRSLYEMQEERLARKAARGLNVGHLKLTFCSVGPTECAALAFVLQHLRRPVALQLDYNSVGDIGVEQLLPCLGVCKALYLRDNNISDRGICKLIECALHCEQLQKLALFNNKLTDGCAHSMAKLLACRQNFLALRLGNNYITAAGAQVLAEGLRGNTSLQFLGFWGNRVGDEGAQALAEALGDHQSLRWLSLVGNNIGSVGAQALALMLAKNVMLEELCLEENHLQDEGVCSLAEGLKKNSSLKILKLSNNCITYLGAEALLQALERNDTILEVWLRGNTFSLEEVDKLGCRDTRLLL
From the text: The HEK-BLUE cell lines (InvivoGen) are lines modified by stable transfection with vectors encoding innate immunity receptors. These cells are also cotransfected with a reporter gene which produces a secreted form of alkaline phosphatase (SEAP: secreted embryonic alkaline phosphatase), the synthesis of which is under the direct control of the signaling pathway associated with the receptor(s) expressed in the same cell line.
(§7) This line, which naturally expresses virtually all the innate immunity receptors, is used as a positive control in the tests.
(§8) The RAW-BLUE and HEK-BLUE cells are cultured according to the supplier's recommendations. In particular, the selection pressure for the plasmids encoding the inflammatory molecule receptors (TLR2 or NOD2) and encoding the SEAP is provided by adding, to the culture medium, the HEK-BLUE Selection/blasticidin antibiotics. At 75% confluence, the cells are resuspended at a cell density of 0.28×10^6 cells/ml. Before stimulation, 180 μl of the cell suspension are distributed into the culture wells (96-well plate), i.e. 50 000 cells/well. The cells are then stimulated for 24 h by adding 20 μl of the test samples (in ten-times concentrated form). The stimulation lasts from 16 to 24 h.
(§9) The production of SEAP in response to the contaminated molecules is estimated by measuring the phosphatase activity according to the protocol supplied by the manufacturer: 20 μl of culture supernatant are diluted in 180 μl of QUANTI-BLUE. The color develops at 37° C. and the reading is carried out, at various times, at 620 nm. The data are expressed as absorbance after subtraction of the background noise, obtained by adding the same volume of nonconditioned culture medium to the reaction medium of the enzyme.
In the new procedure referred to as without subculturing, the HEK-NOD2 cells are conditioned in wells (10 000/well) and cultured for three days. Before stimulation, the culture medium is removed and replaced with a medium containing 1% of FCS and the solutions to be assayed. In this case, the SEAP response is 5-6 times greater than the negative control, which is compatible with a test for detecting MDP in contaminated solutions (FIG. 12).
(§10) The following experimental conditions were selected: • final glucose polymer concentration: 37.5 mg/ml for the HEK-BLUE-cells, and 50 mg/ml for the RAW-BLUE cells, • enzymatic reaction: 50 μl of conditioned medium+150 μl of SEAP reagent, • minimum reaction time: 60 min.

HEK-BLUE Null2 line = assay: SEAP production by HEK-BLUE Null2 control line (HEK-Null); format: cell-based
Method: as §7, §8, §9

RAW-BLUE cells = assay: SEAP production by RAW-BLUE line; format: cell-based, mouse; conditions: for Detection threshold / EC50: RAW-BLUE line; for Sensitivity: per g of polymer at 50 mg/ml
Method: as §7, §8, §9, §10

mononuclear cells = conditions: background statement, cited from earlier work
TLR2 [3] = molecular target: T1, TLR2 (Homo sapiens, UniProt O60603); assay: SEAP production by HEK-BLUE hTLR2 line (HEK-TLR2); format: cell-based
T1 sequence (O60603 21-784): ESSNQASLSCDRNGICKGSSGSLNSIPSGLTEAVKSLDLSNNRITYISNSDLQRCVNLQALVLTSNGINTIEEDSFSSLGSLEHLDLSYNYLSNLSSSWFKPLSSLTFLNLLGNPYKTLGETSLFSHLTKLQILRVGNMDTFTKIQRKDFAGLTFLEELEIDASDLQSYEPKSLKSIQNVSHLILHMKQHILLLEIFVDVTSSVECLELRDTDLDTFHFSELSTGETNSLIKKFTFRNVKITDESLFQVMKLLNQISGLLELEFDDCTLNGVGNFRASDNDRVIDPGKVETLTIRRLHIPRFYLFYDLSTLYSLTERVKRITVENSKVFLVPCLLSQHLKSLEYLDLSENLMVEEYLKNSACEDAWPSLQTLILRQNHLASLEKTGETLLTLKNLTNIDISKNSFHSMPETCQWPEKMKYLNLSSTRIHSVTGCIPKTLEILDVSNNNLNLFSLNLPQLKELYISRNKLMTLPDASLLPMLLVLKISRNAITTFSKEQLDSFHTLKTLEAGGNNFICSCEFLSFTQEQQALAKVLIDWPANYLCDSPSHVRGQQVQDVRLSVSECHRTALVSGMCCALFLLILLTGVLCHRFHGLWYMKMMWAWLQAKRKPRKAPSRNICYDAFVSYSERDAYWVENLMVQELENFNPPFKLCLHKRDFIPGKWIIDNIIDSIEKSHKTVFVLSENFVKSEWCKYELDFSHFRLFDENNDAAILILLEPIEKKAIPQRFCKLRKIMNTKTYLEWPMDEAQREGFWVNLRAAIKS
Method: The HEK-BLUE cell lines (InvivoGen) are lines modified by stable transfection with vectors encoding innate immunity receptors. These cells are also cotransfected with a reporter gene which produces a secreted form of alkaline phosphatase (SEAP: secreted embryonic alkaline phosphatase), the synthesis of which is under the direct control of the signaling pathway associated with the receptor(s) expressed in the same cell line. […]
as §8, §9, §10

TLR2 [4] = molecular target: T1, TLR2; assay: Peptidoglycan assay method with HEK-BLUE hTLR2 cells, with or without mutanolysin treatment; format: cell-based
Method: The assay is based on the specific recognition of PGNs by a line expressing the TLR2 receptor and on the production of an enzymatic activity that is measurable via the activation of the signaling pathway associated with TLR2.
The dose-response curve was produced with standard S. aureus PGN (FIG. 21).
The HEK-BLUE cells are incubated with increasing concentrations of standard, and the cell response is measured by quantifying the enzymatic activity produced.
The result is a conventional sigmoid cell response curve: • part (A) corresponds to the responses obtained with low concentrations of PGN, below those which give effective activation of TLR2. This nonlinear zone therefore corresponds to the threshold limit of detection of the method. In such a way as to include the variability of the method, this detection threshold is estimated at three times the value of the background noise (response obtained in the absence of stimulus). • part (B) is the most interesting since a linear response is observed. This effective-response zone makes it possible to determine a direct relationship between the cell response and the level of PGN. It is therefore the assaying zone; • part (C) corresponds to a saturation of the cell response in the presence of PGN concentrations which are too high. […]
The PGN assays are carried out on glucose polymer solutions. The sample requiring the PGN quantification is incubated with HEK-BLUE hTLR2 cells, and the cell response is measured by quantifying the enzymatic activity produced. The amount of PGN contained in the sample can be determined by referring to the dose-response curves. […]
The samples were treated in the presence of 2500 U/ml of mutanolysin for 16 h at 37° C., and then added to the HEK-TLR2 cells. The cell response was measured by following the activity of the SEAP produced, according to the conditions described in example 3. […]
The absorbance values were reported on the calibration curves established under the same conditions with the standard PGN (FIG. 23), so as to determine the PGN concentrations present in the glucose polymers.

[5] = test of resumption of growth, FIG. 8, supplier's culture procedure

CC(=O)N[C@H]1C(O)O[C@H](CO)[C@@H](O)[C@@H]1O[C@H](C)C(=O)N[C@@H](C)C(=O)N[C@H](CCC(=O)O)C(N)=O (mixture of isomers) [MDP, muramyl dipeptide]
increase of the sensitivity of the THP-1 cells to LPS and PGN (factor) (THP-1 cells [1]; MDP 10 μg/ml): 5
synergistic effect on the production of RANTES and of TNF-α in response to PGN and LPS (THP-1 cells [1]; minimum dose 1 μg/ml): does not induce a significant synergistic effect
synergistic effect on the production of RANTES (THP-1 cells [1]): clearly show a synergistic effect
synergistic effect on the production of TNF-α (THP-1 cells [2]): not very marked
Detection threshold (NOD2; HEK-NOD2 line): 1.5 ± 0.5 ng/mL
EC50 (NOD2; HEK-NOD2 line): 0.012 ± 0.006 µg/mL
Sensitivity (NOD2; per g of polymer at 37.5 mg/ml): 40 ± 13 ng/g
SEAP response relative to the negative control (NOD2; procedure without subculturing, 10 000 cells/well, FIG. 12): 5-6 times
SEAP response of HEK-NOD2 cells (NOD2; selected conditions, FIG. 16): respond effectively
SEAP response of HEK-NOD2 cells (NOD2; [5]): responds only very weakly
SEAP response of HEK-Null cells (HEK-BLUE Null2 line): insensitive

Lipopolysaccharides [LPS]
Detection threshold (THP-1 cells [1]): 10 ± 7 pg/mL
EC50 (THP-1 cells [1]): 0.0009 ± 0.0001 µg/mL
Sensitivity (THP-1 cells [1]): 400 ± 280 pg/g
synergistic effect on the production of RANTES (THP-1 cells [1]): synergistic effect of the two agonists is visible
synergistic effect on the production of TNF-α (THP-1 cells [2]; sensitizer added to PGN/LPS: MDP 10 μg/ml, LPS 25 pg/ml): synergistic effect of the two agonists is visible
SEAP response of RAW-BLUE cells to inflammatory molecules (RAW-BLUE cells): weak
detection threshold relative to that of the sensitized THP-1 cells (RAW-BLUE cells): approximately 50 times
Detection threshold (RAW-BLUE cells): 0.24 ± 0.06 ng/mL
EC50 (RAW-BLUE cells): >0.01 µg/mL
Sensitivity (RAW-BLUE cells): 4.8 ± 1.2 ng/g
concentration inducing a significant response (mononuclear cells): about 1 ng/ml

Tumor Necrosis Factor alpha [TNF-α]
SEAP response of HEK-TLR2 cells to inflammatory molecules (TLR2 [3]): respond
SEAP response of HEK-NOD2 cells (NOD2; [5]): responds only very weakly
SEAP response of HEK-Null cells (HEK-BLUE Null2 line): respond

formyl-Met-Leu-Phe tripeptide [f-MLP]
synergistic effect on the production of RANTES (THP-1 cells [1]): no synergistic effect was observed

lipoteichoic acid [LTA]
SEAP response of HEK-TLR2 cells to inflammatory molecules (TLR2 [3]): weaker

peptidoglycans [PGN]
EC50 (THP-1 cells [1]): 1.2 ± 0.7 µg/mL
Detection threshold (THP-1 cells [1]; response > 3 x SD of background noise): 14500 ± 8500 pg/mL
Sensitivity (THP-1 cells [1]): 580000 ± 340000 pg/g
PGN levels detected by the HEK-TLR2 line (TLR2 [3]): below 2 ng/g of glucose polymer
SEAP response of HEK-TLR2 cells to inflammatory molecules (TLR2 [3]): responds effectively
reduction of reactivity for the HEK-TLR2 cells after passing through a 0.22 μm filter (TLR2 [3]): approximately 50%
sensitivity threshold relative to the sensitized THP-1 cells (TLR2 [3]): 50 times
Detection threshold (TLR2 [3]; HEK-TLR2 line): 0.07 ± 0.04 ng/mL
EC50 (TLR2 [3]; HEK-TLR2 line): 0.0031 ± 0.0025 µg/mL
SEAP response of HEK-TLR2 cells to inflammatory molecules (TLR2 [3]; listed as PUN): respond very effectively
Sensitivity (TLR2 [3]; per g of polymer at 37.5 mg/ml): 1.9 ± 1.1 ng/g
SEAP response of RAW-BLUE cells to inflammatory molecules (RAW-BLUE cells): respond well
Detection threshold (RAW-BLUE cells): 2.1 ± 1.5 ng/mL
EC50 (RAW-BLUE cells): 0.21 ± 0.075 µg/mL
Sensitivity (RAW-BLUE cells): 42 ± 30 ng/g
SEAP response of HEK-Null cells (HEK-BLUE Null2 line): insensitive
reduction of the response of the HEK-TLR2 cells by mutanolysin treatment (TLR2 [4]; 2500 U/ml, 16 h, 37° C., absence of glucose polymer): more than 50%
response of the HEK-TLR2 cells after mutanolysin treatment (TLR2 [4]; in the presence of 7.5% of polymer): improved
response of the HEK-TLR2 cells after mutanolysin treatment (TLR2 [4]; in the presence of 37.5% of polymer): unchanged
concentration required for a similar response, relative to LPS (mononuclear cells; w/w ratio): at least 100 times
